Measured values published in patent publication US8846746B2, “Pyrazole compound and pharmaceutical use thereof” (Japan Tobacco Inc., priority 2011, dated 2014).

target: human SGLT1 (Homo sapiens (Human), UniProt P13866); experiment: SGLT1 inhibitory activity: 14C-AMG uptake into CHO-K1 cell line stably expressing human SGLT1; format: cell-based; conditions: 14C-AMG uptake, CHO-K1 cells expressing human SGLT1
Method in brief: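 CHO-K1 cells stably expressing human SGLT1 were pre-incubated 20 min in Na(−) buffer (pH 7.4). Test compound in Na(+) buffer with BSA was added with ¹⁴C-AMG (8 kBq) plus unlabelled AMG (2 mM in the added solution) for 1 h at 37 °C.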

Chain of human SGLT1 (P13866 whole entry): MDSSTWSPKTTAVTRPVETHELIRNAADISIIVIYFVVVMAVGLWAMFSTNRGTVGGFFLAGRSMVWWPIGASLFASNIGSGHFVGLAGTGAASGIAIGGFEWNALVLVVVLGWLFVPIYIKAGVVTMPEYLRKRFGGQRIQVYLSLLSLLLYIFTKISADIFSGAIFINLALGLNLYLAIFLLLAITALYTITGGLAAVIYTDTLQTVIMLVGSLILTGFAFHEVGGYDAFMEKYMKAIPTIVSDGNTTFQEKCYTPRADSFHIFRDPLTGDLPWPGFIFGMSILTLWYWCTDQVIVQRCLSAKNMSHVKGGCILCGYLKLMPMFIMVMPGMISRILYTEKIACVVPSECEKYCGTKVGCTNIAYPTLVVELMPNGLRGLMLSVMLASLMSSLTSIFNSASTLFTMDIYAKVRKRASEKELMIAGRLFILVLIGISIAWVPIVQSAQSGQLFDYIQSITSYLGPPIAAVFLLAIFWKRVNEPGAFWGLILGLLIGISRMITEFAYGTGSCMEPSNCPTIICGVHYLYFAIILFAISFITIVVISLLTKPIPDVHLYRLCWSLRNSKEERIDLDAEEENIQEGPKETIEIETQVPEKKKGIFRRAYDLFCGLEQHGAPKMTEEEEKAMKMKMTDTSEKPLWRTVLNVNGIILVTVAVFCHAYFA

Row | IC50 [nM] | Compound
1 | 65 | CC(C)(C)c1cccc(-c2cc(NC(=O)[C@H]3CNC(=O)C3)nn2CCc2ccccc2)c1 [Example 109]
2 | 46 | CCCc1cccc(-c2cc(NC(=O)[C@H]3CNC(=O)C3)nn2CC2CCCCC2)c1 [Example 111]
3 | 27 | CCCc1cccc(-c2cc(NC(=O)[C@@H]3CNC(=O)C3)nn2CCC2CCCCC2)c1 [Example 114]
4 | 11 | CCCc1cccc(-c2cc(NC(=O)[C@H]3CNC(=O)C3)nn2CCC(C)C)c1 [Example 135]
5 | 4.3 | CCCCc1cccc(-c2cc(NC(=O)[C@H]3CNC(=O)C3)nn2-c2ccccc2)c1 [Example 45]
6 | 180 | O=C1C[C@@H](C(=O)Nc2cc(-c3cccc(OC(F)(F)F)c3)n(C3CCC(F)(F)CC3)n2)CN1 [Example 197]
7 | 5 | CCCc1cccc(-c2cc(NC(=O)[C@H]3CNC(=O)C3)nn2-c2cccc(OC)c2)c1 [Example 123]
8 | 3.7 | CCCCc1cccc(-c2cc(NC(=O)[C@@H]3CNC(=O)C3)nn2-c2ccccc2)c1 [Example 46]
9 | 7.7 | O=C1CCC(C(=O)Nc2cc(-c3cccc(OC(F)(F)F)c3)n(-c3ccccc3)n2)CN1 (single isomer, unassigned) [Example 150]

same assay, conditions: 14C-AMG uptake, CHO-K1 cells stably expressing human SGLT1

Row | IC50 [nM] | Compound
10 | 12 | O=C1C[C@H](C(=O)Nc2cc(-c3cccc(COC(C(F)(F)F)C(F)(F)F)c3)n(-c3ccc(F)cc3)n2)CN1 [Example 409]
11 | 23 | O=C1C[C@H](C(=O)Nc2cc(-c3cccc(OCC(F)(F)F)c3)n(-c3ccccc3)n2)CN1 [Example 260]
12 | 84 | C[C@@H](OCc1cc(Cl)cc(-c2cc(NC(=O)[C@@H]3CNC(=O)C3)nn2C2CCOCC2)c1)C(F)(F)F [Example 584]
13 | 47 | C[C@@H](OCc1cc(Cl)cc(-c2cc(NC(=O)[C@H]3CNC(=O)N3)nn2-c2ccc(F)cc2)c1)C(F)(F)F [Example 598]
14 | 5.5 | CC(C)(C)Oc1cccc(-c2cc(NC(=O)[C@@H]3CNC(=O)C3)nn2-c2ccccc2)c1 [Example 290]
15 | 36 | CC(C)Oc1cccc(-n2nc(NC(=O)[C@@H]3CNC(=O)C3)cc2-c2cccc(OC(F)(F)F)c2)c1F [Example 478]
16 | 7 | CCCc1cccc(-c2cc(NC(=O)[C@H]3CNC(=O)N3CC(F)(F)F)nn2-c2ccccc2)c1 [Example 385]
17 | 17 | CCCc1cccc(-c2cc(NC(=O)[C@@H]3CNC(=O)C3)nn2-c2ccccc2CC)c1 [Example 358]
18 | 16 | O=C1C[C@H](C(=O)Nc2cc(-c3cccc(OC(F)(F)F)c3)n(-c3ccccc3F)n2)CN1 [Example 466]
19 | 4.7 | C[C@@H](OCc1cccc(-c2cc(NC(=O)[C@@H]3CNC(=O)C3)nn2-c2ccccc2F)c1)C(F)(F)F [Example 472]
20 | 7.6 | CCCc1cccc(-c2cc(NC(=O)[C@@H]3CNC(=O)C3)nn2-c2cccc(OCCCSC)c2)c1 [Example 490]
21 | 8.1 | COCCOc1cccc(-n2nc(NC(=O)[C@@H]3CNC(=O)C3)cc2-c2cccc(COCC(F)(F)F)c2)c1 [Example 450]
22 | 16 | O=C1C[C@H](C(=O)Nc2cc(-c3cc(F)cc(COCC(F)(F)F)c3)n(-c3ccc(Cl)cc3)n2)CN1 [Example 512]

same assay, conditions: CHO-K1, at 0.1 uM

Row | inhibition at 0.1 µM [%] | Compound
23 | 43 | CCCc1cccc(-c2cc(NC(=O)C3CNC(=O)C(C)C3)nn2-c2ccccc2)c1 (racemic) [Example 292]
24 | 31 | O=C1C[C@H](C(=O)Nc2cc(-c3cccc(CN4CCCC4)c3)n(-c3ccccc3)n2)CN1 [Example 428]
25 | 48 | CCCc1cccc(-c2cc(NC(=O)C3CNC(=O)CO3)nn2-c2ccccc2)c1 (stereo not shown) [Example 275]
26 | 38 | CCCN1C(=O)NC[C@H]1C(=O)Nc1cc(-c2cccc(OC(F)(F)F)c2)n(-c2ccccc2)n1 [Example 298]

same assay, conditions: CHO-K1, at 0.3 uM

Row | inhibition at 0.3 µM [%] | Compound
27 | -10 | C[C@H]1C(=O)NC[C@@H]1C(=O)Nc1cc(-c2cccc(OC(F)(F)F)c2)n(-c2ccc(Cl)c(F)c2)n1 [Example 180]
28 | 11 | CCCc1cccc(-c2cc(NC(=O)[C@H]3CN(CC)C(=O)N3)nn2-c2ccccc2)c1 [Example 330]
